Molecules are shown by their SMILES.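 Protocol summary: plate cells (96-well), add compound at 5 concentrations, incubate 48 h, interpolate endpoints linearly. GI50 = concentration required for 50% inhibition of growth.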 Active and inactive are the calls of the source. Cut-off read from the data, not from the text of the source: active = GI50 up to about 1.1 µM and inactive = higher.

Among the test systems are CAKI-1; EKVX; HCC 2998; HCT-116; HL-60; HOP-62; Hs-578T; K562; LOX IMVI; M14; MDA-MB-231; MDA-N; NCI-H460; OVCAR-3; OVCAR-5; RXF 393; SK-MEL-28; SNB-75; UACC-257; UO-31.
What all share (assay): growth of human tumour cells (NCI), 48 h

As to `COC(=O)CC(c1ccccc1)C(C#N)(OP1(=O)OC(c2ccccc2)C(C)N1C)c1ccccc1` (stereo not drawn), the GI50 was 72.1 µM (inactive) in the test with CAKI-1; 77.1 µM (inactive) in the test on EKVX; > 100 µM (inactive) in the test on HCC 2998; 48.4 µM (inactive) in the test on HCT-116; 26.2 µM (inactive) in the test with HL-60; > 100 µM (inactive) in the test on HOP-62. For the same compound, the GI50 with Hs-578T was > 100 µM (inactive); in the test on K562, 26.2 µM (inactive); in the test with LOX IMVI, 59.3 µM (inactive); in the test on M14, 60 µM (inactive); in the test with MDA-MB-231, > 100 µM (inactive); in the test on MDA-N, 54.5 µM (inactive). Also, the GI50 in the test on NCI-H460 was 41.1 µM (inactive); with OVCAR-3, 77.1 µM (inactive); in the test on OVCAR-5, > 100 µM (inactive); in the test with RXF 393, > 100 µM (inactive); in the test with SK-MEL-28, > 100 µM (inactive); with SNB-75 it was > 100 µM (inactive). Also, the values for the GI50 in the test on UACC-257 and in the test with UO-31 were 34.9 µM (inactive) and 11.1 µM (inactive), respectively.

As for `CC(=O)O[C@H]1C(=O)[C@@]2(C)[C@H]([C@H](OC(=O)c3ccccc3)[C@]3(O)C[C@H](OC(=O)[C@H](O)[C@@H](NC(=O)c4ccc(N)cc4)c4ccccc4)C(C)=C1C3(C)C)[C@]1(OC(C)=O)CO[C@@H]1C[C@@H]2O`, the GI50 with CAKI-1 is 4.66 µM (inactive); with EKVX, 0.959 µM (active); with HCC 2998, < 0.005 µM (active); in the test with HCT-116 it was < 0.005 µM (active); with HL-60, < 0.005 µM (active); in the test on HOP-62, 0.0253 µM (active). The GI50 in the test with Hs-578T was < 0.005 µM (active); in the test with K562 it was < 0.005 µM (active); in the test on LOX IMVI, < 0.005 µM (active); in the test with M14 it was 0.0188 µM (active); in the test on MDA-MB-231, 0.22 µM (active); in the test on MDA-N, < 0.005 µM (active). Also, the GI50 in the test with NCI-H460 is < 0.005 µM (active); in the test on OVCAR-3 it was < 0.005 µM (active); with OVCAR-5 it was 0.00687 µM (active); in the test on RXF 393, 0.0887 µM (active); in the test on SK-MEL-28, > 50 µM (inactive); with SNB-75, < 0.005 µM (active). The GI50 in the test on UO-31 was 8.32 µM (inactive).

In the case of `COc1cc2ccc(=O)oc2cc1O` [SCOPOLETIN], the GI50 in the test with CAKI-1 was 119 µM (inactive); in the test on EKVX, 57.5 µM (inactive); in the test on HCC 2998 it was 98.4 µM (inactive); in the test with HCT-116, 56.4 µM (inactive); in the test with HL-60, 34.8 µM (inactive); in the test with HOP-62, 134 µM (inactive). Besides, the GI50 in the test with Hs-578T is > 100 µM (inactive); in the test on K562, 152 µM (inactive); in the test on LOX IMVI it was 61.9 µM (inactive); in the test on M14 it was > 100 µM (inactive); in the test with MDA-MB-231, > 100 µM (inactive); in the test with MDA-N, > 100 µM (inactive). Also, the GI50 with NCI-H460 is 18.4 µM (inactive); in the test with OVCAR-3, 69.8 µM (inactive); in the test with OVCAR-5 it was 156 µM (inactive); in the test on RXF 393 it was 128 µM (inactive); in the test with SK-MEL-28 it was 73.3 µM (inactive); in the test with SNB-75, 50.8 µM (inactive). The GI50 in the test on UACC-257 is 71.9 µM (inactive); in the test on UO-31 it was 38 µM (inactive).

Consider `CCCCCCCCCCCCP(=O)(O)OCC(N)C(=O)O` (stereo not drawn), for which the GI50 was 49.9 µM (inactive) in the test with CAKI-1; 93.3 µM (inactive) in the test with EKVX; 30.5 µM (inactive) in the test with HCC 2998; 13.3 µM (inactive) with HCT-116; 15.8 µM (inactive) in the test with HL-60; 16.1 µM (inactive) in the test on HOP-62. Besides, the GI50 in the test with Hs-578T is 20.2 µM (inactive); with K562 it was 39.4 µM (inactive); in the test with LOX IMVI it was 24.9 µM (inactive); in the test on M14 it was 48.8 µM (inactive); with MDA-MB-231 it was 16.4 µM (inactive); in the test on MDA-N, 21.4 µM (inactive). Moreover, the GI50 with NCI-H460 was 23.7 µM (inactive); in the test with OVCAR-3 it was 18.7 µM (inactive); in the test on OVCAR-5 it was 34.1 µM (inactive); in the test on RXF 393, 48.1 µM (inactive); in the test on SK-MEL-28 it was 43.3 µM (inactive); in the test on SNB-75, 11.4 µM (inactive). Further, the figures for the GI50 with UACC-257 and with UO-31 were > 100 µM (inactive) and 12.3 µM (inactive), respectively.

For the compound `O=C1NCCCc2nonc21`, the GI50 in the test on CAKI-1, in the test with EKVX, in the test with HCC 2998, with HCT-116, in the test on HL-60 and in the test with HOP-62 was > 100 µM (inactive) in each case. Further, the GI50 in the test with Hs-578T, with K562, in the test on LOX IMVI, with M14, with MDA-MB-231 and in the test with MDA-N was > 100 µM (inactive) in each case. Moreover, the GI50 with NCI-H460, in the test on OVCAR-3, with OVCAR-5, with RXF 393, in the test on SK-MEL-28 and in the test on SNB-75 was > 100 µM (inactive) in each case. Further, the GI50 in the test on UACC-257 and with UO-31 was > 100 µM (inactive) each time.

Turning to `CC(=O)Oc1c2c(c(CC=C(C)C)c3c1C(=O)C1=C[C@@H]4CC5C(C)(C)OC(C/C=C(/C)C(=O)O)(C4=O)[C@@]15O3)OC(C)(CCC=C(C)C)C=C2` (stereo partly drawn), the GI50 with CAKI-1 was 0.174 µM (active); in the test on EKVX, 0.249 µM (active); in the test with HCC 2998, 0.61 µM (active); in the test on HCT-116 it was 0.149 µM (active); in the test with HL-60, 0.0408 µM (active); in the test with HOP-62 it was 0.832 µM (active). The GI50 in the test on Hs-578T is 0.337 µM (active); in the test with K562 it was 0.409 µM (active); with LOX IMVI it was 0.104 µM (active); with M14, 0.282 µM (active); in the test with MDA-MB-231, 0.227 µM (active); in the test with MDA-N it was 0.16 µM (active). Besides, the GI50 in the test on NCI-H460 is 0.486 µM (active); in the test with OVCAR-3 it was 0.308 µM (active); in the test on OVCAR-5, 0.361 µM (active); with RXF 393, 0.144 µM (active); in the test with SK-MEL-28 it was 0.188 µM (active); in the test on SNB-75, 0.323 µM (active). Moreover, the GI50 in the test on UACC-257 was 0.384 µM (active); in the test with UO-31, 0.173 µM (active).

Take `c1nnc(NCNc2nncs2)s1`: the GI50 was 9.48 µM (inactive) in the test on CAKI-1; 23.3 µM (inactive) with EKVX; 19.2 µM (inactive) with HCC 2998; 33.7 µM (inactive) in the test with HCT-116; 46.3 µM (inactive) in the test on HL-60; 46.5 µM (inactive) in the test with HOP-62. Moreover, the GI50 in the test with Hs-578T was > 100 µM (inactive); with K562, 42.8 µM (inactive); in the test on LOX IMVI, 32.7 µM (inactive); with M14 it was 43.1 µM (inactive); in the test on MDA-MB-231, 30.7 µM (inactive); in the test with MDA-N, 35.2 µM (inactive). Besides, the GI50 was 6.18 µM (inactive) with NCI-H460; 21.5 µM (inactive) with OVCAR-3; 79.3 µM (inactive) in the test with OVCAR-5; 29 µM (inactive) in the test with RXF 393; 64.4 µM (inactive) in the test on SK-MEL-28; 30 µM (inactive) in the test with SNB-75. Further, the results for the GI50 in the test with UACC-257 and in the test with UO-31 were 47.8 µM (inactive) and 53.3 µM (inactive), respectively.

Consider `O=C(Cc1ccccc1F)NC1=C(Cl)C(=O)c2ccccc2C1=O`, for which the GI50 with CAKI-1 was 2.79 µM (inactive); in the test with EKVX, 3.02 µM (inactive); in the test with HCC 2998, 3.48 µM (inactive); with HCT-116, 0.459 µM (active); with HL-60, 0.31 µM (active); in the test with HOP-62, 5.48 µM (inactive). Also, the GI50 in the test with Hs-578T is 0.656 µM (active); in the test with K562, 0.611 µM (active); in the test on LOX IMVI, 1.75 µM (inactive); in the test with M14, 0.802 µM (active); in the test on MDA-MB-231 it was 2.69 µM (inactive); with MDA-N it was 2.78 µM (inactive). Further, the GI50 with NCI-H460 is 1.38 µM (inactive); in the test with OVCAR-3 it was 0.621 µM (active); in the test on OVCAR-5 it was 4.08 µM (inactive); in the test with RXF 393, 0.249 µM (active); in the test on SK-MEL-28, 0.822 µM (active); in the test with SNB-75, 0.655 µM (active). In addition, in the test with UO-31, the GI50 is 0.723 µM (active).

`CN(C)C(=O)CO/N=C1/C(=C2/C(=O)Nc3ccccc32)Nc2ccccc21`: the GI50 with CAKI-1 was 4.69 µM (inactive); in the test on EKVX, > 100 µM (inactive); in the test with HCC 2998 it was > 100 µM (inactive); with HCT-116, 94.8 µM (inactive); in the test with HL-60, > 100 µM (inactive); in the test on HOP-62, 18.7 µM (inactive). Further, the GI50 with Hs-578T was > 100 µM (inactive); in the test on K562 it was > 100 µM (inactive); in the test on LOX IMVI, > 100 µM (inactive); in the test on M14, 97.3 µM (inactive); in the test on MDA-MB-231, > 100 µM (inactive); with MDA-N, > 100 µM (inactive). The GI50 with NCI-H460 was > 100 µM (inactive); with OVCAR-3, > 100 µM (inactive); with OVCAR-5 it was > 100 µM (inactive); in the test on RXF 393, 17.7 µM (inactive); in the test with SK-MEL-28 it was > 100 µM (inactive); in the test with SNB-75, 30.4 µM (inactive). Moreover, the GI50 in the test with UACC-257 and with UO-31 was > 100 µM (inactive) throughout.

Consider `O=[N+]([O-])c1ccc2c(c1)nc(Cc1ccccc1)n2C[C@@H]1CCCN2CCCCC12` (stereo partly drawn), for which the GI50 was 28.3 µM (inactive) in the test on CAKI-1; 17.1 µM (inactive) in the test with EKVX; 12.9 µM (inactive) in the test with HCC 2998; 33.7 µM (inactive) in the test with HCT-116; < 0.01 µM (active) with HL-60; > 100 µM (inactive) with HOP-62. In addition, the GI50 was 38.5 µM (inactive) in the test with Hs-578T; 18.7 µM (inactive) in the test on K562; 20.4 µM (inactive) in the test on LOX IMVI; 18.2 µM (inactive) with M14; 31.3 µM (inactive) with MDA-MB-231; 20.6 µM (inactive) in the test on MDA-N. The GI50 in the test with NCI-H460 is 41.4 µM (inactive); in the test with OVCAR-3 it was 41.5 µM (inactive); in the test on OVCAR-5, 28.5 µM (inactive); with RXF 393, 19.4 µM (inactive); in the test on SK-MEL-28, 18.6 µM (inactive); with SNB-75 it was 63.5 µM (inactive). Also, the GI50 with UACC-257 is 15.8 µM (inactive); in the test on UO-31 it was 6.49 µM (inactive).
